Measurements taken from patent US10875845B2, “Compounds and methods for the treatment of ocular disorders” (Azura Ophthalmics Ltd., priority 2019, dated 2020).

How the values were obtained:
Rabbit Cornea Homogenate = Rabbit Cornea Homogenate Stability Assay (rabbit cornea esterase assay); assay type: in vitro ADME; conditions: 37° C.
Method: Determining Rabbit Cornea Homogenate stability of the test compounds was performed using HPLC-MS. The assay was performed at two concentrations of Rabbit Cornea Homogenate (0.15 mg/ml and 0.45 mg/ml total protein) so that any hydrolysis observed could be assigned as esterase dependent or not.
Five rabbit corneas (e.g. New Zealand Whites) of approx. 50 mg each were sliced and scraped with a scalpel and tweezers until reduced to small (1-3 mm), thin pieces. These were transferred into a tared vial and accurately weighed, then diluted with 10 volumes aqueous PBS pH7.4
Sample was cooled intermittently on ice and shear homogenized for 3 minutes, then centrifuged for 3 min at 3000 rpm. The supernatant was pipetted off into a vial, and total protein concentration determined at 280 nm. Sample was stored at −78° C.
10 mM Compound stocks were diluted to 100 μM in a 96 deep-well plate: 10 μl of 10 mM Compound stock was added to 990 μl 50 mM HEPES, pH7.5 buffer.
Compounds were further diluted to 10 μM: 100 μl of 100 μM compound was added to 900 μl 50 mM HEPES, pH7.5 buffer.
Esterase homogenate was diluted to 300 ng/μl and 900 ng/μl
A heater shaker was set to 37° C. Into a suitable 96 well plate (Run Plate), 75 μl of 300 or 900 ng/μl esterase homogenate was pipetted into each of the required wells (2 min, 5 min, 10 min, 20 min and 45 min). The plate was sealed and then warmed at 37° C. for 5 min. Another 96 well PCR plate is put on ice (Kill Plate). To this was added 100 μl of MeCN to each well, labelled 0 min, 2 min, 5 min, 10 min, 20 min and 45 min. The plate was covered to minimise evaporation. For the T=0 sample only, to the 100 μl cold MeCN stop solution was added 50 μl of 300 or 900 ng/μl esterase homogenate followed by 50 μl of 10 μM compound solution For the remaining time points, 75 μl of 10 μM compound solution was added to the Run Plate starting from T=45 min row and ending with T=2 min row. At the appropriate time point, 100 μl of the assay mixture was added to the matching kill plate well containing 100 μl of cold MeCN. Samples were analysed as soon as practicable by LCMS (Waters Xevo TQ-S or Micromass Ultima).
Parent conjugate and parent concentrations were determined against appropriate standard response curves and the half-life (T1/2) of the parent conjugate was calculated using the peak area of the parent conjugate at each time point in the linear region of the log—linear plot.

[1] = Aqueous Hydrolysis Stability Assay; assay type: physicochemical; conditions: 100 μM in 50 mM HEPES pH 7.5 buffer or 1:1 Acetonitrile:Water, room temperature
Method: Determination of aqueous stability of the test compounds was performed using HPLC-MS. A test compound 10 mM stock solution was prepared in DMSO. 10 μl of the DMSO stock solution was dissolved in 990 μl of 50 mM HEPES pH 7.5 buffer or 1:1 (v/v) of Acetonitrile:Water to make a 100 μM solution. Final DMSO concentration was 1%. The solution was kept at room temperature and injected without delay into the LCMS (Waters Xevo TQ-S or Micromass Ultima). Additional injections were performed at appropriate time points.
Half-life (T1/2) of the parent conjugate was calculated using the peak area of the parent conjugate at each time point in the linear region of the log—linear plot.

[2] = Cornea Homogenate Conc 0.15 mg/mL
[3] = Cornea Homogenate Conc 0.45 mg/mL

Row | API Formation rate (Rabbit Cornea Homogenate; [2]) | Esterase % Lifitegrast formation at 45 min (Rabbit Cornea Homogenate; [2]) | API Formation rate (Rabbit Cornea Homogenate; [3]) | Esterase % Lifitegrast formation at 45 min (Rabbit Cornea Homogenate; [3]) | Structure (SMILES) | Hydrolytic % Lifitegrast formation at [time] ([1]; at 192 min) | Hydrolytic % Lifitegrast formation at [time] ([1]; at 45 min) | Hydrolytic % Lifitegrast formation at [time] ([1]; at 142 min)
1 | b (API formation rate 0.5-1.0%/min) | B (percent API formation 25% to 50%) | c (API formation rate 1.0-1.5%/min) | C (percent API formation 51% to 75%) | Cc1ccccc1OCC(=O)N[C@@H](CC(C)C)C(=O)N[C@@H](Cc1ccc(OC(=O)N2CCC(C(N)=O)CC2)cc1)C(=O)OC(C)OC(=O)OC(C)C (stereo partly drawn) [Comp 2, 4-((2S)-3-(1-((isopropoxycarbonyl)oxy)ethoxy)-2-((S)-4-methyl-2-(2-(o-tolyloxy)acetamido)pentan-amido)-3-oxopropyl)phenyl 4-carbamoylpiperidine-1-carboxylate] | A [192 min] (percent active pharmaceutical ingredient (API) formation<1.5%) | – | –
2 | d (API formation rate>1.5%/min) | B (percent API formation 25% to 50%) | b (API formation rate 0.5-1.0%/min) | C (percent API formation 51% to 75%) | COC(=O)OC(C)OC(=O)[C@H](Cc1cccc(S(C)(=O)=O)c1)NC(=O)c1c(Cl)cc2c(c1Cl)CCN(C(=O)c1ccc3ccoc3c1)C2 (stereo partly drawn) [Comp 3, 1-((methoxycarbonyl)oxy) ethyl (2S)-2-(2-(benzofuran-6-carbonyl)-5,7-dichloro-1,2,3,4-tetrahydroisoquinoline-6-carboxamido)-3-(3-(methylsulfonyl)phenyl) propanoate] | – | B [45 min] (percent API formation 1.5-4%) | –
3 | b (API formation rate 0.5-1.0%/min) | B (percent API formation 25% to 50%) | c (API formation rate 1.0-1.5%/min) | C (percent API formation 51% to 75%) | CCOC(=O)OC(C)OC(=O)[C@H](Cc1cccc(S(C)(=O)=O)c1)NC(=O)c1c(Cl)cc2c(c1Cl)CCN(C(=O)c1ccc3ccoc3c1)C2 (stereo partly drawn) [Comp 4, 1-((ethoxycarbonyl)oxy)ethyl (2S)-2-(2-(benzofuran-6-carbonyl)-5,7-dichloro-1,2,3,4-tetrahydroisoquinoline-6-carboxamido)-3-(3-(methylsulfonyl)phenyl) propanoate] | – | B [45 min] (percent API formation 1.5-4%) | –
4 | b (API formation rate 0.5-1.0%/min) | B (percent API formation 25% to 50%) | d (API formation rate>1.5%/min) | D (percent API formation>75%) | CC(C)OC(=O)OC(C)OC(=O)[C@H](Cc1cccc(S(C)(=O)=O)c1)NC(=O)c1c(Cl)cc2c(c1Cl)CCN(C(=O)c1ccc3ccoc3c1)C2 (stereo partly drawn) [Comp 5, 1-((isopropoxycarbonyl)oxy)ethyl (2S)-2-(2-(benzofuran-6-carbonyl)-5,7-dichloro-1,2,3,4-tetrahydroisoquinoline-6-carboxamido)-3-(3-(methylsulfonyl)phenyl) propanoate] | A [192 min] (percent active pharmaceutical ingredient (API) formation<1.5%) | – | –
5 | b (API formation rate 0.5-1.0%/min) | B (percent API formation 25% to 50%) | c (API formation rate 1.0-1.5%/min) | C (percent API formation 51% to 75%) | COC(=O)[C@@H](C)OC(=O)OC(C)OC(=O)[C@H](Cc1cccc(S(C)(=O)=O)c1)NC(=O)c1c(Cl)cc2c(c1Cl)CCN(C(=O)c1ccc3ccoc3c1)C2 (stereo partly drawn) [Comp 7, 1-(((((R)-1-methoxy-1-oxopropan-2-yl)oxy)carbonyl)oxy)ethyl (2S)-2-(2-(benzofuran-6-carbonyl)-5,7-dichloro-1,2,3,4-tetrahydroisoquinoline-6-carboxamido)-3-(3-(methylsulfonyl)phenyl) propanoate] | – | – | B [142 min] (percent API formation 1.5-4%)
6 | b (API formation rate 0.5-1.0%/min) | B (percent API formation 25% to 50%) | d (API formation rate>1.5%/min) | C (percent API formation 51% to 75%) | CCOC(=O)[C@@H](C)OC(=O)OC(C)OC(=O)[C@H](Cc1cccc(S(C)(=O)=O)c1)NC(=O)c1c(Cl)cc2c(c1Cl)CCN(C(=O)c1ccc3ccoc3c1)C2 (stereo partly drawn) [Comp 8, 1-(((((R)-1-ethoxy-1-oxopropan-2-yl)oxy)carbonyl)oxy)ethyl (2S)-2-(2-(benzofuran-6-carbonyl)-5,7-dichloro-1,2,3,4-tetrahydroisoquinoline-6-carboxamido)-3-(3-(methylsulfonyl)phenyl) propanoate] | – | A [45 min] (percent active pharmaceutical ingredient (API) formation<1.5%) | –
7 | b (API formation rate 0.5-1.0%/min) | B (percent API formation 25% to 50%) | d (API formation rate>1.5%/min) | C (percent API formation 51% to 75%) | CC(OC(=O)OCC1COC(C)(C)OC1)OC(=O)[C@H](Cc1cccc(S(C)(=O)=O)c1)NC(=O)c1c(Cl)cc2c(c1Cl)CCN(C(=O)c1ccc3ccoc3c1)C2 (stereo partly drawn) [Comp 9, 1-((((2,2-dimethyl-1,3-dioxan-5-yl)methoxy)carbonyl)oxy) ethyl (2S)-2-(2-(benzofuran-6-carbonyl)-5,7-dichloro-1,2,3,4-tetrahydroisoquinoline-6-carboxamido)-3-(3-(methylsulfonyl)phenyl) propanoate] | – | – | B [142 min] (percent API formation 1.5-4%)

Row | Structure (SMILES) | API Formation rate (Rabbit Cornea Homogenate; [2]) | Esterase % Lifitegrast formation at 45 min (Rabbit Cornea Homogenate; [2]) | API Formation rate (Rabbit Cornea Homogenate; [3]) | Esterase % Lifitegrast formation at 45 min (Rabbit Cornea Homogenate; [3]) | Hydrolytic % Lifitegrast formation at [time] ([1]; at 192 min) | Hydrolytic % Lifitegrast formation at [time] ([1]; at 45 min) | Hydrolytic % Lifitegrast formation at [time] ([1]; at 142 min)
8 | CC(OC(=O)OC(C)(C)C)OC(=O)[C@H](Cc1cccc(S(C)(=O)=O)c1)NC(=O)c1c(Cl)cc2c(c1Cl)CCN(C(=O)c1ccc3ccoc3c1)C2 (stereo partly drawn) [Comp 6, 1-((tert-butoxycarbonyl)oxy)ethyl (2S)-2-(2-(benzofuran-6-carbonyl)-5,7-dichloro-1,2,3,4-tetrahydroisoquinoline-6-carboxamido)-3-(3-(methylsulfonyl)phenyl) propanoate] | a (API formation rate<0.5%/min) | A (percent active pharmaceutical ingredient (API) formation<25%) | b (API formation rate 0.5-1.0%/min) | B (percent API formation 25% to 50%) | – | – | C [142 min] (percent API formation>4%)
9 | CC(OC(=O)OCC(COC(=O)[C@@H](C)O)COC(=O)[C@@H](C)O)OC(=O)[C@H](Cc1cccc(S(C)(=O)=O)c1)NC(=O)c1c(Cl)cc2c(c1Cl)CCN(C(=O)c1ccc3ccoc3c1)C2 (stereo partly drawn) [Comp 13, 2-((8S)-10-(2-(benzofuran-6-carbonyl)-5,7-dichloro-1,2,3,4-tetrahydroisoquinolin-6-yl)-5-methyl-8-(3-(methylsulfonyl)benzyl)-3,7,10-trioxo-2,4,6-trioxa-9-azadecyl)propane-1,3-diyl (2R,2'R)-bis(2-hydroxypropanoate)] | a (API formation rate<0.5%/min) | A (percent active pharmaceutical ingredient (API) formation<25%) | a (API formation rate<0.5%/min) | A (percent active pharmaceutical ingredient (API) formation<25%) | – | – | –
